Laboratory results as given in patent US20260028364A1, “CATIONIC CHROMENONES AND THEIR USE IN ONCOLOGY” (FLORATEK PHARMA S.A., priority 2022, published 2026).

What was measured:
NALM-6 = test: CellTiter-Glo cell viability, NALM-6; format: cell-based; settings: Homo sapiens; NALM-6 cells, 72 h with compound
Procedure: (§1) Antitumor activity against a panel of cancer cell lines Antitumor activity of the compounds was assessed by using the CellTiter-Glow® Luminescent Cell Viability assay (Promega #G7572) according to the manufacturer's instructions. The compounds were tested at 5 or 6 concentrations in 1:2 dilution increments (highest concentration 10 µM) in triplicate well conditions.
(§2) Tumor cells were grown at 37° C. in a humidified atmosphere with 5% CO2 in RPMI 1640 or DMEM medium, supplemented with 10% (v/v) fetal calf serum and 50 μg/ml gentamicin for up to 20 passages, and were passaged once or twice weekly. Cells were harvested using TrypLE or PBS buffer containing 1 mM EDTA, and the percentage of viable cells is determined using a cell counter.
(§3) Cells were harvested from exponential phase cultures, counted and plated in 96 well flat-bottom microtiter plates at a cell density depending on the cell line's growth rate (4,000-20,000 cells/well depending on the cell line's growth rate) in RPMI 1640 or DMEM medium supplemented with 10% (v/v) fetal calf serum and 50 μg/ml gentamicin (140 μl/well). Cultures were incubated at 37° C. and 5% CO2 in a humidified atmosphere. […] Viability of cells was quantified by the CellTiter-Glow® Luminescent Cell Viability assay (Promega #G7572). Luminescence was measured with the microplate luminometer (En Vision Perkin Elmer). […]

Wnt/Beta-Catenin = test: SelectScreen CellSensor pathway inhibition, Wnt/Beta-Catenin; format: cell-based; settings: Homo sapiens, HCT-116; LEF-TCF-bla HCT116, no stimulus (constitutively activated)
Procedure: (§4) Inhibition of various cellular pathways known to be involved in malignancy was tested using the SelectScreen Cell-based Pathway Profiling GeneBLAzer™ cell signaling pathway specific CellSensor™ cell lines ((Thermo Fisher). The assay is based on a beta-lactamase reporter activity which is modulated and can be measured quantitatively and selectively with the LiveBLAzer™-FRET B/G Loading Substrate. SelectScreen Cell-Based Pathway Profiling Service uses XLfit from IDBS. The dose response curve is curve fit to model number 205 (sigmoidal dose-response model). Custom logic was built by Thermo Fisher for the data analysis tool to address the different compound characteristics that can be observed with functional assays.
Wnt/Beta-Catenin—LEF-TCF-bla HCT116—Inhibitor Screen, Constitutively Activated
LEF-TCF-bla HCT116 cells are thawed and resuspended in Assay Media (OPTI-MEM, 0.5% dialyzed FBS, 0.1 mM NEAA, 1 mM Sodium Pyruvate, 100 U/mL/100 μg/mL Pen/Strep) to a concentration of 312,500 cells/mL. 32 μL of cell suspension is added to each well of a 384-well Poly-D-Lysine assay plate. Cells in Assay Media are incubated for 16-24 hours in the plate at 37° C./5% CO2 in a humidified incubator. 4 μL of a 10× serial dilution of ICG-001 (control inhibitor starting concentration, 25,000 nM) or compounds are added to appropriate wells of the plate. […] The plate is read on a fluorescence plate reader.

HCC-15 = test: CellTiter-Glo cell viability, HCC-15; format: cell-based; settings: HCC15; HCC-15 cells, 72 h with compound
Procedure: as §1, §2
Cells were harvested from exponential phase cultures, counted and plated in 96 well flat-bottom microtiter plates at a cell density depending on the cell line's growth rate (4,000-20,000 cells/well depending on the cell line's growth rate) in RPMI 1640 or DMEM medium supplemented with 10% (v/v) fetal calf serum and 50 μg/ml gentamicin (140 μl/well). Cultures were incubated at 37° C. and 5% CO2 in a humidified atmosphere. After 24 h, 10 μl of test compounds or control medium are added, and left on the cells for another 72 h. Compounds were serially diluted in DMSO, transferred in cell culture medium, and added to the assay plates. The DMSO concentration was kept constant at <0.2% v/v across the assay plate. Viability of cells was quantified by the CellTiter-Glow® Luminescent Cell Viability assay (Promega #G7572). Luminescence was measured with the microplate luminometer (En Vision Perkin Elmer).
Sigmoidal concentration-response curves were fitted to the data points (test-versus-control, T/C values) obtained for each tumor model using Graph Pad prism 5.02 software. IC50 values are reported as absolute IC50 values, being the concentration of test compound at the intersection of the concentration-response curves with T/C=50%.

[1] = Tolerability in the A2058 xenograft study; format: in vivo, Balb-c/nude mouse; settings: peritumoral QOD; resolved after the treatment was stopped
Procedure: Each Balb-c/nude mouse was inoculated subcutaneously at the right flank with A2058 melanoma tumor cells (5×10^6+Matrigel) in 0.2 ml of PBS for tumor development. 10 animals per group were randomized when the average tumor volume reached 74 mm^3. Test compounds were prepared as DMSO stocks and diluted in the injection vehicle before administration. The treatment was administered every other day (QOD) as a peritumoral injection. Vehicle composition was 4% DMSO, 5% ethanol, 20% PEG200, 71% saline. Dosing volume for all groups: 5 mL/kg.
Body weight and clinical signs were monitored throughout the study.

NCI-H1975 = test: CellTiter-Glo cell viability, NCI-H1975; format: cell-based; settings: Homo sapiens, H-1975 cells, 72 h with compound
Procedure: as §1, §2, §3

MAPK/MEK/B-raf = test: SelectScreen CellSensor pathway inhibition, MAPK/MEK/B-raf; format: cell-based; settings: Homo sapiens, A-375; AP1-bla A375, no stimulus (constitutively activated)
Procedure: as §4
MAPK/MEK/B-raf—AP1-bla A375—Inhibitor Screen, Constitutively Activated
AP1-bla A375 cells are thawed and resuspended in Assay Media (OPTI-MEM, 0.5% dialyzed FBS, 0.1 mM NEAA, 1 mM Sodium Pyruvate, 100 U/mL/[…] Pen/Strep) to a concentration of 312,500 cells/mL. 4 μL of a 10×serial dilution of Rafi Kinase Inhibitor (control inhibitor starting concentration, 10,000 nM) or compounds are added to appropriate wells of a TC-Treated assay plate. 32 μL of cell suspension (10,000 cells) is added to the wells. 4 μL of Assay Media is added to all wells to bring the final assay volume to 40 μL. […] The plate is read on a fluorescence plate reader.

A375 = test: Caspase-Glo 3/7 apoptosis assay, A375; format: cell-based; settings: A375 cells, 10 μM, 24 h
Procedure: Apoptosis activity was evaluated using Caspase-Glo 3/7 Assay kit (Promega-G8091) according to the manufacturer's instructions. Cells were grown as above and harvested from exponential phase cultures, counted and plated in 96 black well flat-bottom microtiter plates at a cell density depending on the cell line's growth rate (3,000-10,000 cells/well depending on the cell line's growth rate). Following an overnight incubation, compounds were added to the cell plates at various concentrations (highest at […]) with the DMSO concentration maintained at 0.1% for a 24 h period treatment. 100 μL of Caspase-Glo 3/7 Reagent was added to each well of 96-well plate containing 100 μL culture medium, and after 30 min at room temperature, luminescence was measured with the microplate luminometer (EnVision Perkin Elmer). The induced relative Caspase 3/7 activity of the tested compounds was determined by the following formula: Relative Caspase 3/7 activity (fold increase)=(RLU compound−RLU blank)/(RLU control−RLU blank).

COc1ccc2c(=O)c(-c3ccc(CCCC[P+](c4ccccc4)(c4ccccc4)c4ccccc4)cc3)coc2c1OC.[Br-] [SND470, (4-(4-(7,8-Dimethoxy-4-oxo-4H-chromen-3-yl)phenyl)butyl)triphenylphosphonium bromide]
IC50 (NALM-6): 0.25 µM
IC50 (Wnt/Beta-Catenin): 0.97 µM
IC50 (HCC-15): 0.01 µM
finding at the site of the injection [1]: slight scabbing at the site of the injection
IC50 (NCI-H1975): 0.14 µM
IC50 (MAPK/MEK/B-raf): 2.7 µM
Fold activation of Caspase 3/7 (A375): 13.98 Fold
